Data set [1] has as its target T1, mGluR5 (Homo sapiens, UniProt P41594). The data set can be described thus: mGluR5 fold shift at a fixed compound concentration. The format is cell-based. The following applies: at 1 μM.
The target in data set [2] is T1, mGluR5. As to the kind of experiment: mGluR5 PAM EC50 (positive allosteric modulator potency). In kind it is cell-based.

T1 sequence (P41594 21-1212): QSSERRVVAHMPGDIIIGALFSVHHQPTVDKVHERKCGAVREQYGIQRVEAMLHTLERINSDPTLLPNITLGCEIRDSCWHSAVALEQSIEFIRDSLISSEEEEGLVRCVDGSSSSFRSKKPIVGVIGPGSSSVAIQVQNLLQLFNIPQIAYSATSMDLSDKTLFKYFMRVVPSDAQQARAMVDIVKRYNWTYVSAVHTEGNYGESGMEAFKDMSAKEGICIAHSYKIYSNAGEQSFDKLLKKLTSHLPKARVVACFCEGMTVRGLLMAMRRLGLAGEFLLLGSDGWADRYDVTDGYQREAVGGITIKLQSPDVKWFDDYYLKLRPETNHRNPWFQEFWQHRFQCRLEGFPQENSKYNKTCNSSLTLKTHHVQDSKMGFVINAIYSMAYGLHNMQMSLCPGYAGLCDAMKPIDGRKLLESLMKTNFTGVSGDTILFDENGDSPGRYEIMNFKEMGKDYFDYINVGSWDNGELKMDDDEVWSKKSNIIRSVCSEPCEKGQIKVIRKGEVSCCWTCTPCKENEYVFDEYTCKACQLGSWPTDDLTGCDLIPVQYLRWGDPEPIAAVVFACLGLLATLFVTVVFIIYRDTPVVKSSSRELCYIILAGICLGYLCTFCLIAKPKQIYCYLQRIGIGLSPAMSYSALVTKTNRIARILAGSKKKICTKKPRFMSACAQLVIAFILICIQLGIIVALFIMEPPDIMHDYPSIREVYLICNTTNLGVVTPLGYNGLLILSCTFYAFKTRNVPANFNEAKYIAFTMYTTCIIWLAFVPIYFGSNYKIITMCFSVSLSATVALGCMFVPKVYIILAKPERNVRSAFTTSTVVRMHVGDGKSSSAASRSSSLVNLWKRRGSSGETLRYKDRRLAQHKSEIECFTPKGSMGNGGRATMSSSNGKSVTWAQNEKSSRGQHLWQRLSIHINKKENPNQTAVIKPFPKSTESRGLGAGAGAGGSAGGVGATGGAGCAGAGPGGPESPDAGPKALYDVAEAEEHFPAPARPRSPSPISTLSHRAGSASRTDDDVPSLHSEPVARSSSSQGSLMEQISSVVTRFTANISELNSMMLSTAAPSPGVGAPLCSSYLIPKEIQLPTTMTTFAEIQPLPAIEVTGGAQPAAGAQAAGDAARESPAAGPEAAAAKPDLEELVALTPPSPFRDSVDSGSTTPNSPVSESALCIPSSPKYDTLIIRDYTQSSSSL

For the compound `COC(C)(C)C1Cc2nc3cc(C#Cc4ccccn4)ccc3c(=O)n2C1` (stereo not drawn) [Example 1.4, 2-(2-methoxypropan-2-yl)-6-(pyridin-2-ylethynyl)-2,3-dihydropyrrolo[2,1-b]quinazolin-9(1H)-one], the “Fold shift at 1 μM” value in data set [1] is listed as “+++ (+++>3)”. The compound also gave an EC50 in data set [2] of 10 to 30 nM.

Regarding `O=c1c2ccc(C#Cc3ccccn3)cc2nc2n1CC1(CCC1)C2` [Example 1.7, 6′-(pyridin-2-ylethynyl)-1′H-spiro[cyclobutane-1,2′-pyrrolo[2,1-b]quinazolin]-9′(3′H)-one], the “Fold shift at 1 μM” value in data set [1] was “+++ (+++>3)”. This compound also displayed an EC50 in data set [2] of 10 to 30 nM.

Take `CCC1(C)Cc2nc3cc(C#Cc4ccccn4)ccc3c(=O)n2C1` (stereo not drawn) [Example 1.10, 2-ethyl-2-methyl-6-(pyridin-2-ylethynyl)-2,3-dihydropyrrolo[2,1-b]quinazolin-9(1H)-one]: the “Fold shift at 1 μM” value in data set [1] is given as “+++ (+++>3)”. The same compound returned an EC50 in data set [2] of 10 to 30 nM.

As to `CC1(C)Cc2nc3cc(C#Cc4ccccn4)ccc3c(=O)n2O1` [Example 1.15, 2,2-dimethyl-6-(pyridin-2-ylethynyl)-2H-isoxazolo[3,2-b]quinazolin-9(3H)-one], the “Fold shift at 1 μM” value in data set [1] is “+ (+ is between 1.5 and 1.9)”. This compound also came in with an EC50 in data set [2] of 30 to 100 nM.

`CCC1(C)Cc2nc3cc(C#Cc4ccccn4)cnc3c(=O)n2C1` (stereo not drawn) [Example 1.19, 7-ethyl-7-methyl-3-(pyridin-2-ylethynyl)-7,8-dihydropyrido[3,2-d]pyrrolo[1,2-a]pyrimidin-10(6H)-one]: the “Fold shift at 1 μM” value in data set [1] was “++ (++ is between 2.0 and 2.9)”. The compound further returned an EC50 in data set [2] of 30 to 100 nM.

`CC1(C)COc2nc3cc(C#Cc4ccccn4)ccc3c(=O)n2C1` [Example 2.29, 3,3-dimethyl-9-(pyridin-2-ylethynyl)-3,4-dihydro-[1,3]oxazino[2,3-b]quinazolin-6(2H)-one]: the “Fold shift at 1 μM” value in data set [1] is listed as “+++ (+++>3)”. In data set [2], the EC50 is 10 to 30 nM.

As to `CC1(C)CCc2nc3c(F)c(C#Cc4ccccn4)ccc3c(=O)n2C1` [Example 2.30b, 4-fluoro-8,8-dimethyl-3-(pyridin-2-ylethynyl)-8,9-dihydro-6H-pyrido[2,1-b]quinazolin-11(7H)-one], the “Fold shift at 1 μM” value in data set [1] is on record as “+++ (+++>3)”. In data set [2], this compound gave an EC50 of 10 to 30 nM.

With `CC1(C)CCc2nc3cc(C#Cc4ccccc4)ccc3c(=O)n2C1` [Example 2.37, 8,8-dimethyl-3-(phenylethynyl)-8,9-dihydro-6H-pyrido[2,1-b]quinazolin-11(7H)-one], the “Fold shift at 1 μM” value in data set [1] was “++ (++ is between 2.0 and 2.9)”. Further, the concentration giving a half-maximal response (EC50) in data set [2] was < 10 nM.

With `Cc1cccc(C#Cc2ccc3c(=O)n4c(nc3c2)CCC(C)(C)C4)n1` [Example 2.41, 8,8-dimethyl-3-((6-methylpyridin-2-yl)ethynyl)-8,9-dihydro-6H-pyrido[2,1-b]quinazolin-11(7H)-one], the “Fold shift at 1 μM” value in data set [1] is “+++ (+++>3)”. Also, the EC50 in data set [2] was 10 to 30 nM.

For `CC1(C)CCc2nc3cc(C#Cc4ccc(Cl)cn4)ccc3c(=O)n2C1` [Example 2.42, 3-((5-chloropyridin-2-yl)ethynyl)-8,8-dimethyl-8,9-dihydro-6H-pyrido[2,1-b]quinazolin-11(7H)-one], the “Fold shift at 1 μM” value in data set [1] is “+++ (+++>3)”. For the same compound, the EC50 in data set [2] is < 10 nM.

For the compound `CC1(C)CCc2nc3cc(C#Cc4ccc(F)cn4)ccc3c(=O)n2C1` [Example 2.43, 3-((5-fluoropyridin-2-yl)ethynyl)-8,8-dimethyl-8,9-dihydro-6H-pyrido[2,1-b]quinazolin-11(7H)-one], the “Fold shift at 1 μM” value in data set [1] was “++ (++ is between 2.0 and 2.9)”. The EC50 in data set [2] is < 10 nM.

Turning to `Cc1cccc(C#Cc2ccc3c(=O)n4c(nc3c2)CCC(C)(C)C4)c1` [Example 2.44, 8,8-dimethyl-3-(m-tolylethynyl)-8,9-dihydro-6H-pyrido[2,1-b]quinazolin-11(7H)-one], in data set [1], the “Fold shift at 1 μM” value is reported as “+++ (+++>3)”. Further, the EC50 in data set [2] is < 10 nM.

By EC50 is commonly meant the concentration needed to bring the measured effect to its halfway point.

Values taken from patent publication US9708331B2, “Metabotrophic glutamate receptor 5 modulators and methods of use thereof” (SUNOVION PHARMACEUTICALS INC., priority 2011, dated 2017).
